From ChEMBL document CHEMBL1671626, “In vitro profiling of ceftaroline against a collection of recent bacterial clinical isolates from across the United States” (2008)

Experiments:
Type in all cases: functional
Streptococcus pyogenes [1] = assay: Antibacterial activity against erythromycin-nonsusceptible Streptococcus pyogenes by CLSI M7-A7 broth microdilution method
Klebsiella pneumoniae [2] = assay: Antibacterial activity against ceftazidime-susceptible Klebsiella pneumoniae by CLSI M7-A7 broth microdilution method
Klebsiella pneumoniae [3] = assay: Antibacterial activity against ceftazidime-nonsusceptible Klebsiella pneumoniae by CLSI M7-A7 broth microdilution method
Enterococcus faecalis [4] = assay: Antibacterial activity against vancomycin-resistant Enterococcus faecalis by CLSI M7-A7 broth microdilution method
Pasteurella multocida = assay: Antibacterial activity against Pasteurella multocida by CLSI M7-A7 broth microdilution method
Citrobacter freundii [5] = assay: Antibacterial activity against ceftazidime-nonsusceptible Citrobacter freundii by CLSI M7-A7 broth microdilution method
Staphylococcus aureus [6] = assay: Antibacterial activity against methicillin-resistant Staphylococcus aureus by CLSI M7-A7 broth microdilution method
Enterococcus faecium = assay: Antibacterial activity against vancomycin-resistant Enterococcus faecium by CLSI M7-A7 broth microdilution method
Escherichia coli [7] = assay: Antibacterial activity against ceftazidime-susceptible Escherichia coli by CLSI M7-A7 broth microdilution method
Enterobacter cloacae [8] = assay: Antibacterial activity against ceftazidime-nonsusceptible Enterobacter cloacae by CLSI M7-A7 broth microdilution method
Streptococcus viridans [9] = assay: Antibacterial activity against penicillin-susceptible Streptococcus viridans by CLSI M7-A7 broth microdilution method
Proteus mirabilis = assay: Antibacterial activity against ceftazidime-susceptible Proteus mirabilis by CLSI M7-A7 broth microdilution method
Streptococcus viridans [10] = assay: Antibacterial activity against penicillin-nonsusceptible Streptococcus viridans by CLSI M7-A7 broth microdilution method
Escherichia coli [11] = assay: Antibacterial activity against ceftazidime-nonsusceptible Escherichia coli by CLSI M7-A7 broth microdilution method
Providencia sp. = assay: Antibacterial activity against ceftazidime-susceptible Providencia sp. by CLSI M7-A7 broth microdilution method
Streptococcus pyogenes [12] = assay: Antibacterial activity against erythromycin-susceptible Streptococcus pyogenes by CLSI M7-A7 broth microdilution method
Streptococcus agalactiae [13] = assay: Antibacterial activity against erythromycin-nonsusceptible Streptococcus agalactiae by CLSI M7-A7 broth microdilution method
Haemophilus influenzae [14] = assay: Antibacterial activity against beta lactamase-positive Haemophilus influenzae by CLSI M7-A7 broth microdilution method
Staphylococcus aureus [15] = assay: Antibacterial activity against methicillin-susceptible Staphylococcus aureus by CLSI M7-A7 broth microdilution method
Staphylococcus aureus [16] = assay: Antibacterial activity against coagulase-negative and oxacillin-resistant Staphylococcus aureus by CLSI M7-A7 broth microdilution method
Staphylococcus aureus [17] = assay: Antibacterial activity against coagulase-negative and oxacillin-susceptible Staphylococcus aureus by CLSI M7-A7 broth microdilution method
Citrobacter freundii [18] = assay: Antibacterial activity against ceftazidime-susceptible Citrobacter freundii by CLSI M7-A7 broth microdilution method
Acinetobacter [19] = assay: Antibacterial activity against multidrug-resistant Acinetobacter by CLSI M7-A7 broth microdilution method
Streptococcus agalactiae [20] = assay: Antibacterial activity against erythromycin-susceptible Streptococcus agalactiae by CLSI M7-A7 broth microdilution method
Acinetobacter [21] = assay: Antibacterial activity against imipenem-susceptible Acinetobacter by CLSI M7-A7 broth microdilution method
Haemophilus influenzae [22] = assay: Antibacterial activity against beta lactamase-negative Haemophilus influenzae by CLSI M7-A7 broth microdilution method
Moraxella catarrhalis = assay: Antibacterial activity against beta lactamase-positive Moraxella catarrhalis by CLSI M7-A7 broth microdilution method
Enterobacteriaceae [23] = assay: Antibacterial activity against ceftazidime-nonsusceptible Enterobacteriaceae by CLSI M7-A7 broth microdilution method
Morganella morganii = assay: Antibacterial activity against ceftazidime-susceptible Morganella morganii by CLSI M7-A7 broth microdilution method
Enterococcus faecalis [24] = assay: Antibacterial activity against vancomycin-susceptible Enterococcus faecalis by CLSI M7-A7 broth microdilution method
Serratia marcescens = assay: Antibacterial activity against ceftazidime-susceptible Serratia marcescens by CLSI M7-A7 broth microdilution method
Streptococcus pneumoniae [25] = assay: Antibacterial activity against penicillin-susceptible Streptococcus pneumoniae by CLSI M7-A7 broth microdilution method
Streptococcus pneumoniae [26] = assay: Antibacterial activity against penicillin-resistant Streptococcus pneumoniae by CLSI M7-A7 broth microdilution method
Enterobacter cloacae [27] = assay: Antibacterial activity against ceftazidime-susceptible Enterobacter cloacae by CLSI M7-A7 broth microdilution method
Enterobacteriaceae [28] = assay: Antibacterial activity against ceftazidime-susceptible Enterobacteriaceae by CLSI M7-A7 broth microdilution method

CCO/N=C(\C(=O)N[C@@H]1C(=O)N2C(C(=O)[O-])=C(Sc3nc(-c4cc[n+](C)cc4)cs3)CS[C@H]12)c1nsc(NP(=O)(O)O)n1 [CEFTAROLINE FOSAMIL]
4 µg/mL: MIC50 (Enterococcus faecalis [4]) | MIC90 (Enterococcus faecalis [4]) | MIC90 (Proteus mirabilis) | MIC50 (Acinetobacter [21]) | MIC90 (Enterococcus faecalis [24])
0.25 µg/mL: MIC90 (Klebsiella pneumoniae [2]) | MIC50 (Staphylococcus aureus [15]) | MIC90 (Staphylococcus aureus [15]) | MIC90 (Citrobacter freundii [18]) | MIC90 (Moraxella catarrhalis)
> 16 µg/mL: MIC50 (Klebsiella pneumoniae [3]) | MIC90 (Klebsiella pneumoniae [3]) | MIC50 (Citrobacter freundii [5]) | MIC90 (Citrobacter freundii [5]) | MIC50 (Enterococcus faecium) | MIC90 (Enterococcus faecium) | MIC50 (Enterobacter cloacae [8]) | MIC90 (Enterobacter cloacae [8]) | MIC50 (Escherichia coli [11]) | MIC90 (Escherichia coli [11]) | MIC90 (Providencia sp.) | MIC50 (Acinetobacter [19]) | MIC90 (Acinetobacter [21]) | MIC50 (Enterobacteriaceae [23]) | MIC90 (Enterobacteriaceae [23])
1 µg/mL: MIC90 (Staphylococcus aureus [6]) | MIC50 (Providencia sp.) | MIC90 (Enterobacter cloacae [27]) | MIC90 (Enterobacteriaceae [28])
0.06 µg/mL: MIC50 (Klebsiella pneumoniae [2]) | MIC90 (Pasteurella multocida) | MIC50 (Escherichia coli [7]) | MIC50 (Proteus mirabilis) | MIC50 (Staphylococcus aureus [17]) | MIC50 (Moraxella catarrhalis) | MIC50 (Morganella morganii) | MIC50 (Enterobacteriaceae [28])
0.12 µg/mL: MIC50 (Streptococcus viridans [10]) | MIC90 (Staphylococcus aureus [17]) | MIC50 (Citrobacter freundii [18]) | MIC50 (Streptococcus pneumoniae [26]) | MIC90 (Streptococcus pneumoniae [26]) | MIC50 (Enterobacter cloacae [27])
0.03 µg/mL: MIC90 (Streptococcus viridans [9]) | MIC90 (Haemophilus influenzae [14])
2 µg/mL: MIC50 (Enterococcus faecalis [24])
0.5 µg/mL: MIC50 (Staphylococcus aureus [6]) | MIC90 (Escherichia coli [7]) | MIC90 (Streptococcus viridans [10]) | MIC50 (Staphylococcus aureus [16]) | MIC90 (Staphylococcus aureus [16]) | MIC50 (Serratia marcescens)
≤ 0.008 µg/mL: MIC (Streptococcus pyogenes [1]) | MIC50 (Streptococcus pyogenes [1]) | MIC (Pasteurella multocida) | MIC50 (Pasteurella multocida) | MIC (Streptococcus viridans [9]) | MIC50 (Streptococcus viridans [9]) | MIC (Streptococcus pyogenes [12]) | MIC50 (Streptococcus pyogenes [12]) | MIC90 (Streptococcus pyogenes [12]) | MIC (Haemophilus influenzae [22]) | MIC50 (Haemophilus influenzae [22]) | MIC (Streptococcus pneumoniae [25]) | MIC50 (Streptococcus pneumoniae [25])
0.015 µg/mL: MIC90 (Streptococcus pyogenes [1]) | MIC50 (Streptococcus agalactiae [13]) | MIC90 (Streptococcus agalactiae [13]) | MIC50 (Haemophilus influenzae [14]) | MIC50 (Streptococcus agalactiae [20]) | MIC90 (Streptococcus agalactiae [20]) | MIC90 (Haemophilus influenzae [22]) | MIC90 (Streptococcus pneumoniae [25])
16 µg/mL: MIC90 (Morganella morganii) | MIC90 (Serratia marcescens)
